Test results reported in patent publication US8841233B2, “Herbicidal compositions comprising 4-amino-3-chloro-5-fluoro-6-(4-chloro-2-fluoro-3-methoxyphenyl) pyridine-2-carboxylic acid or a derivative thereof and 4-hydroxyphenyl-pyruvate dioxygenase (HPPD) inhibitors” (Dow Agrosciences LLC, priority 2012, dated 2014).

Test system: ECHOR
Assay: In-water applied weed control, transplanted paddy rice, greenhouse (Example II)
Type: in vivo, Echinochloa oryzoides (Ard.) Fritsch
Description: Evaluation of in-Water Applied Herbicidal Mixtures for Weed Control in Transplanted Paddy Rice
Weed seeds or nutlets of the desired test plant species were planted in puddled soil (mud) prepared by mixing a shredded, non-sterilized mineral soil (50.5 percent silt, 25.5 percent clay, and 24 percent sand, with a pH of about 7.6 and an organic matter content of about 2.9 percent) and water at a 1:1 volumetric ratio. The prepared mud was dispensed in 365 mL aliquots into 16-ounce (oz.) non-perforated plastic pots with a surface area of 86.59 square centimeters (cm^2) leaving a headspace of 3 centimeters (cm) in each pot. Mud was allowed to dry overnight prior to planting or transplanting. Rice seeds were planted in Sun Gro MetroMix® 306 planting mixture, which typically has a pH of 6.0 to 6.8 and an organic matter content of about 30 percent, in plastic plug trays. Seedlings at the second or third leaf stage of growth were transplanted into 840 mL of mud contained in 32-oz. non-perforated plastic pots with a surface area of 86.59 cm^2 4 days prior to herbicide application. The paddy was created by filling the headspace of the pots with 2.5 to 3 cm of water. When required to ensure good germination and healthy plants, a fungicide treatment and/or other chemical or physical treatment was applied. The plants were grown for 4-22 days in a greenhouse with an approximate 14 h photoperiod which was maintained at about 29′C during the day and 26° C. during the night. Nutrients were added as Osmocote® (19:6:12, N:P:K+ minor nutrients) at 2 g per 16-oz. pot and 4 g per 32-oz. pot. Water was added on a regular basis to maintain the paddy flood, and supplemental lighting was provided with overhead metal halide 1000-Watt lamps as necessary. The plants were employed for testing when they reached the first through fourth true leaf stage.
Treatments consisted of the acid or esters of 4-amino-3-chloro-5-fluoro-6-(4-chloro-2-fluoro-3-methoxy-phenyl)pyridine-2-carboxylic acid (compound A) each formulated as an SC (suspension concentrate) and various herbicidal components alone and in combination. Forms of compound A were applied on an acid equivalent basis.
Other herbicidal components were applied on an active ingredient basis and included 4-hydroxyphenyl pyruvate dioxygenase (HPPD)-inhibiting herbicides mesotrione formulated as Callisto®, sulcotrione formulated as Mikado®, pyrazolynate formulated as Sunbird® 10% GR, and benzobicyclon formulated as Benzobicyclon 3.5% or technical material.
Treatment requirements for each compound or herbicidal component were calculated based upon the rates being tested, the concentration of active ingredient or acid equivalent in the formulation, an application volume of 2 mL per component per pot, and an application area of 86.59 cm^2 per pot.
For formulated compounds, a measured amount was placed in an individual 100 or 200 mL glass vial and was dissolved in a volume of 1.25% (v/v) Agri-Dex® crop oil concentrate to obtain application solutions.
For technical grade compounds, a weighed amount was placed in an individual 100 to 200 mL glass vial and was dissolved in a volume of acetone to obtain concentrated stock solutions. […] The concentrated stock solutions obtained were diluted with an equivalent volume of an aqueous mixture containing 2.5% (v/v) crop oil concentrate so that the final application solutions contained 1.25% (v/v) crop oil concentrate.
Applications were made by injecting with a pipetter appropriate amounts of the application solutions, individually and sequentially, into the aqueous layer of the paddy. Control plants were treated in the same manner with the solvent blank. Applications were made so that all treated plant material received the same concentrations of acetone and crop oil concentrate.
The treated plants and control plants were placed in a greenhouse as described above and water was added as needed to maintain a paddy flood. […]

SMILES | Visual Weed Control (%) - 20 DAA ECHOR Obs (4.38 gae/ha) | Visual Weed Control (%) - 21 DAA ECHOR Obs (4.38 gae/ha) | Visual Weed Control (%) - 20 DAA ECHOR Obs (8.75 gae/ha) | Visual Weed Control (%) - 21 DAA ECHOR Obs (8.75 gae/ha) | Visual Weed Control (%) - 22 DAA ECHOR Obs (8.75 gae/ha) | Visual Weed Control (%) - 20 DAA ECHOR Obs (17.5 gae/ha) | Visual Weed Control (%) - 21 DAA ECHOR Obs (17.5 gae/ha) | Visual Weed Control (%) - 22 DAA ECHOR Obs (17.5 gae/ha) | Visual Weed Control (%) - 21 DAA ECHOR Obs (96 gae/ha) | Visual Weed Control (%) - 22 DAA ECHOR Obs (21.2 gae/ha) | Visual Weed Control (%) - 20 DAA ECHOR Obs (42.4 gae/ha) | Visual Weed Control (%) - 22 DAA ECHOR Obs (42.4 gae/ha) | Visual Weed Control (%) - 20 DAA ECHOR Obs (84.8 gae/ha)
COc1c(Cl)ccc(-c2nc(C(=O)OCc3ccccc3)c(Cl)c(N)c2F)c1F [Compound A Benzyl Ester, benzyl ester of 4-amino-3-chloro-5-fluoro-6-(4-chloro-2-fluoro-3-methoxy-phenyl)pyridine-2-carboxylic acid] | 10% | 25% | 20% | 25% | 40% | 30% | 60% | 95% | 80% | – | – | – | –
COc1c(Cl)ccc(-c2nc(C(=O)O)c(Cl)c(N)c2F)c1F [Compound A Acid, 4-amino-3-chloro-6-(4-chloro-2-fluoro-3-methoxyphenyl)-5-fluoropyridine-2-carboxylic acid] | – | – | – | – | – | – | – | – | – | 20% | 18% | 40% | 33%
